Reference: US6967215B2, “Tetrahydrocarbazoles, a process for the preparation of those compounds, and the use thereof” (Ciba Specialty Chemicals Corporation, priority 2000, dated 2005)

Columns and labels:
[1] = tested on: Escherichia coli NCTC 8196; test: MIC, microtitre dilution test (growth by optical density at 620 nm); assay type: cell-based; details: Table 2, Escherichia coli
Method: (§1) Casein/soybean flour peptone bouillon for the preparation of pre-cultures of the test bacteria and yeast.
(§2) The test substances are predissolved in dimethyl sulfoxide (DMSO) and tested in a dilution series of 1:2.
(§3) Bacteria and yeast are cultured overnight in CASO bouillon, the mould is cultured overnight on mycological slant agar, and washed off with 10 ml of 0.85% sodium chloride solution (+0.1% TritonX-100).
(§4) All the test organisms are adjusted to an organism count of 1-5×10^6 CFU/ml using 0.85% sodium chloride solution.
(§5) The test substances are pre-pipetted into microtitre plates in an amount of 8 μl per well.
(§6) Pre-diluted organism suspensions are diluted 1:100 in CASO bouillon (bacteria and yeast) or Sabouraud 2% glucose bouillon (mould) and are added in an amount of 192 μl per well to the test substances.
(§7) The test batches are incubated for 48 hours at 37° C. (bacteria and yeast) or for 5 days at 28° C. (mould).
(§8) After incubation, the growth is evaluated by reference to the turbidity of the test batches (optical density) at 620 nm in a microplate reader.
(§9) The minimum inhibitory concentration (MIC value) is the concentration of substance at which (compared with the growth of the control) an appreciable inhibition of growth (≦20% growth) of the test organisms is ascertained.
(§10) One microtitre plate is used for each test organism and substance concentration. All the substances are tested in duplicate.

[2] = tested on: Staphylococcus hominis DMS 20328; test: as above; assay type: cell-based; details: Table 2, Staphylococcus hominis DMS 20328
Method: as §1, §2, §3, §4, §5, §6, §7, §8, §9, §10

Structure (SMILES) | MIC [ppm] E. coli [1] [ppm] | MIC [ppm] S. hominis [2] [ppm] | MIC ([1]; NCTC8196, read-out: MIC [ppm] E. coli) [µg/mL] | MIC ([2]; DMS20328, read-out: MIC [ppm] S. hominis) [µg/mL]
CCOC(=O)N1CCC2c3c([nH]c4ccccc34)C3C(=O)N(C)C(=O)C3C2C1 (stereo not shown) [Compound 115] | >120 | 60 | – | –
O=C1NC(=O)C2C1c1[nH]c3ccc(Br)cc3c1C1CCCCCCC12 (stereo not shown) [Compound 73] | >120 | 60 | – | –
CCC(C)(C)C1CCC2c3c([nH]c4ccc(OC)cc34)C3C(=O)NC(=O)C3C2C1 (stereo not shown) [Compound 102] | >120 | 60 | – | –
COc1ccc2[nH]c3c(c2c1)C1CCC(C(C)(C)C)CC1C1C(=O)N(C)C(=O)C31 (stereo not shown) [Compound 166] | >120 | >120 | – | –
CCCC1CCC2c3c([nH]c4ccc(OC)cc34)C3C(=O)NC(=O)C3C2C1 (stereo not shown) [Compound 101] | >120 | >120 | – | –
CC1(C)CC2c3c([nH]c4ccccc34)C3C(=O)NC(=O)C3C2C(C)(C)N1 (stereo not shown) [Compound 28] | >120 | >120 | – | –
CN1CCC2c3c([nH]c4ccccc34)C3C(=O)N(C)C(=O)C3C2C1 (stereo not shown) [Compound 123] | 120 | >120 | – | –
CCc1cccc2c3c([nH]c12)C1C(=O)NC(=O)C1C1CCCCC31 (stereo not shown) [Compound 74] | >120 | 60 | – | –
COc1ccc2[nH]c3c(c2c1)C1CCCCCCC1C1C(=O)N(C)C(=O)C31 (stereo not shown) [Compound 180] | >120 | >120 | – | –
CCN1C(=O)C2c3c(c4ccccc4n3C)C3CCC(C(C)(C)C)CC3C2C1=O (stereo not shown) [Compound 49] | >120 | >120 | – | –
COc1ccc2[nH]c3c(c2c1)C1CCN(C)CC1C1C(=O)NC(=O)C31 (stereo not shown) [Compound 105] | >120 | >120 | – | –
CCCC1CCC2c3c([nH]c4ccc(OC)cc34)C3C(=O)N(C)C(=O)C3C2C1 (stereo not shown) [Compound 174] | >120 | 30 | – | –
COc1ccc2[nH]c3c(c2c1)C1CCCC1C1C(=O)N(C)C(=O)C31 (stereo not shown) [Compound 165] | >120 | 120 | – | –
CN1C(=O)C2c3[nH]c4ccc(Br)cc4c3C3CCCCCC3C2C1=O (stereo not shown) [Compound 130] | >120 | 15 | – | –
CC1(C)CC2c3c([nH]c4ccccc34)C3C(=O)NC(=O)C3C2C(C)(C)C1 (stereo not shown) [Compound 63] | >120 | 7.5 | – | –
CC(C)N1CCC2c3c([nH]c4ccccc34)C3C(=O)NC(=O)C3C2C1 (stereo not shown) [Compound 55] | >120 | >120 | – | –
Cn1c2c(c3ccccc31)C1CCC(C(C)(C)C)CC1C1C(=O)N(c3ccccc3)C(=O)C21 (stereo not shown) [Compound 22] | >120 | >120 | – | –
COc1ccc2[nH]c3c(c2c1)C1CCCCCC1C1C(=O)N(C)C(=O)C31 (stereo not shown) [Compound 167] | >120 | >120 | – | –
CCCN1CCC2c3c([nH]c4ccc(OC)cc34)C3C(=O)N(C)C(=O)C3C2C1 (stereo not shown) [Compound 169] | >120 | >120 | – | –
CN1C(=O)C2c3[nH]c4ccccc4c3C3CCN(Cc4ccccc4)CC3C2C1=O (stereo not shown) [Compound 122] | >120 | >120 | – | –
COc1ccc2[nH]c3c(c2c1)C1CCCC1C1C(=O)NC(=O)C31 (stereo not shown) [Compound 92] | >120 | >120 | – | –
O=C1NC(=O)C2C1c1[nH]c3ccc(Br)cc3c1C1CCCCCC12 (stereo not shown) [Compound 32] | >120 | 3.75 | – | –
CCc1cccc2c3c([nH]c12)C1C(=O)NC(=O)C1C1CCCC31 (stereo not shown) [Compound 75] | >120 | 30 | – | –
CC(C)(C)C1CCC2c3c([nH]c4ccc(Br)cc34)C3C(=O)NC(=O)C3C2C1 (stereo not shown) [Compound 31] | >120 | 15 | – | –
O=C1NC(=O)C2C1c1[nH]c3ccccc3c1C1CCN(Cc3ccccc3)CC12 (stereo not shown) [Compound 60] | >120 | 120 | – | –
CCCC1CCC2c3c([nH]c4ccccc34)C3C(=O)N(C)C(=O)C3C2C1 (stereo not shown) [Compound 119] | >120 | >120 | – | –
COc1ccc2[nH]c3c(c2c1)C1CC(C)(C)CC(C)(C)C1C1C(=O)N(C)C(=O)C31 (stereo not shown) [Compound 181] | >120 | >120 | – | –

Structure (SMILES) | MIC [ppm] E. coli [1] [ppm] | MIC [ppm] S. hominis [2] [ppm] | MIC ([1]; NCTC8196, read-out: MIC [ppm] E. coli) [µg/mL] | MIC ([2]; DMS20328, read-out: MIC [ppm] S. hominis) [µg/mL]
COc1ccc2[nH]c3c(c2c1)C1CCCCCCCCCCC1C1C(=O)N(C)C(=O)C31 (stereo not shown) [Compound 179] | >120 | >120 | – | –
CN1C(=O)C2c3[nH]c4ccccc4c3C3CC(C)(C)NC(C)(C)C3C2C1=O (stereo not shown) [Compound 113] | >120 | >120 | – | –
CCOC(=O)N1CCC2c3c([nH]c4ccc(Br)cc34)C3C(=O)NC(=O)C3C2C1 (stereo not shown) [Compound 68] | >120 | >120 | – | –
CN1C(=O)C2c3[nH]c4ccccc4c3C3CCCCCCC3C2C1=O (stereo not shown) [Compound 125] | >120 | >120 | – | –
COc1ccc2[nH]c3c(c2c1)C1CCCCC1C1C(=O)NC(=O)C31 (stereo not shown) [Compound 91] | >120 | >120 | – | –
CCN1CCC2c3c([nH]c4ccc(OC)cc34)C3C(=O)N(C)C(=O)C3C2C1 (stereo not shown) [Compound 176] | >120 | >120 | – | –
CCC(C)(C)C1CCC2c3c([nH]c4ccccc34)C3C(=O)N(C)C(=O)C3C2C1 (stereo not shown) [Compound 120] | >120 | 30 | – | –
CC1CCC2C(C1)c1c([nH]c3ccccc13)C1C(=O)N(C)C(=O)C12 (stereo not shown) [Compound 117] | – | – | > 120 | > 120
CCc1cccc2c3c([nH]c12)C1C(=O)NC(=O)C1C1C3CC(C)(C)CC1(C)C (stereo not shown) [Compound 90] | >120 | >120 | – | –
CCCN1CCC2c3c([nH]c4ccc(Br)cc34)C3C(=O)NC(=O)C3C2C1 (stereo not shown) [Compound 33] | 60 | 30 | – | –
COc1ccc2[nH]c3c(c2c1)C1CC(C)CCC1C1C(=O)N(C)C(=O)C31 (stereo not shown) [Compound 172] | >120 | >120 | – | –
CCCCCCC1CCC2C3C(=O)NC(=O)C3c3[nH]c4c(CC)cccc4c3C12 (stereo not shown) [Compound 83] | >120 | >120 | – | –
CN1C(=O)C2c3[nH]c4ccc(Br)cc4c3C3CCC(C(C)(C)C)CC3C2C1=O (stereo not shown) [Compound 129] | >120 | >120 | – | –
CC(C)(C)C1CCC2c3c([nH]c4ccc(Br)cc34)C3C(=O)N(c4ccccc4)C(=O)C3C2C1 (stereo not shown) [Compound 19] | >120 | >120 | – | –
CCc1cccc2c3c([nH]c12)C1C(=O)N(C)C(=O)C1C1CCCCCCC31 (stereo not shown) [Compound 162] | >120 | 120 | – | –
Cn1c2c(c3ccccc31)C1CC(C)(C)NC(C)(C)C1C1C(=O)N(c3ccccc3)C(=O)C21 (stereo not shown) [Compound 24] | >120 | >120 | – | –
CCCN1CCC2c3c([nH]c4ccccc34)C3C(=O)N(c4ccccc4)C(=O)C3C2C1 (stereo not shown) [Compound 15] | >120 | >120 | – | –
CC(C)(C)C1CCC2c3c([nH]c4ccccc34)C3C(=O)N(c4ccccc4)C(=O)C3C2C1 (stereo not shown) [Compound 13] | >120 | >120 | – | –
CCCN1CCC2c3c([nH]c4ccc(Br)cc34)C3C(=O)N(CC)C(=O)C3C2C1 (stereo not shown) [Compound 46] | 120 | 120 | – | –
CCN1CCC2c3c([nH]c4ccccc34)C3C(=O)N(C)C(=O)C3C2C1 (stereo not shown) [Compound 121] | >120 | >120 | – | –
CCCCCCC1CCC2C3C(=O)NC(=O)C3c3[nH]c4ccccc4c3C12 (stereo not shown) [Compound 57] | >120 | >120 | – | –
CCCN1CCC2c3c([nH]c4ccccc34)C3C(=O)N(C)C(=O)C3C2C1 (stereo not shown) [Compound 114] | >120 | >120 | – | –
COc1ccc2[nH]c3c(c2c1)C1CC(C)(C)CC(C)(C)C1C1C(=O)NC(=O)C31 (stereo not shown) [Compound 108] | >120 | >120 | – | –
COc1ccc2[nH]c3c(c2c1)C1CCCCC1C1C(=O)N(C)C(=O)C31 (stereo not shown) [Compound 164] | >120 | >120 | – | –
CCOC(=O)N1CCC2c3c([nH]c4ccccc34)C3C(=O)NC(=O)C3C2C1 (stereo not shown) [Compound 54] | >120 | >120 | – | –
COc1ccc2[nH]c3c(c2c1)C1CC(C)(C)NC(C)(C)C1C1C(=O)N(C)C(=O)C31 (stereo not shown) [Compound 168] | >120 | >120 | – | –
